Results on 18 molecules are retold here after patent publication US8785436B2, “1,3-oxazines as BACE 1 and/or BACE2 inhibitors” (Hoffmann-La Roche Inc., priority 2011, dated 2014).

Test [1] concerns the target T1, BACE1 (Homo sapiens, UniProt P56817).
T1 construct: Human HEK293 cells which are stably transfected with a vector expressing a cDNA of the human APP wt gene (APP695); endogenous in cells; host or cells: HEK293 cells stably expressing human APP695 wt
As to the kind of experiment: Cellular Aβ-lowering assay a) (Aβ40 ELISA, HEK293 APP cells). Format: cell-based. The settings on record: cellular assay a): HEK293 APP695 cells, 18-20 hrs incubation, read-out: BACE1 cell act. Aβ40 IC50. As to the method: Cellular Aβ-Lowering Assay:
a) Human HEK293 cells which are stably transfected with a vector expressing a cDNA of the human APP wt gene (APP695) were used to assess the potency of the compounds in a cellular assay. The cells were seeded in 96-well microtiter plates in cell culture medium (Iscove, plus 10% (v/v) fetal bovine serum, glutamine, penicillin/streptomycin) to about 80% confluence and the compounds were added at a 10× concentration in 1/10 volume of medium without FCS containing 8% DMSO (final concentration of DMSO was kept at 0.8% v/v). After 18-20 hrs incubation at 37° C. and 5% CO2 in a humidified incubator the culture supernatant was harvested for the determination of Aβ40 concentrations. 96 well ELISA plates (e.g., Nunc MaxiSorb) were coated with monoclonal antibody which specifically recognize the C-terminal end of Aβ40 (Brockhaus et al., NeuroReport 9, 1481-1486; 1998). After blocking of non-specific binding sites with e.g. 1% BSA and washing, the culture supernatants were added in suitable dilutions together with a horseradish peroxidase-coupled Aβ detection antibody (e.g., antibody 4G8, Senetek, Maryland Heights, Mo.) and incubated for 5 to 7 hrs. Subsequently the wells of the microtiter plate were washed extensively with Tris-buffered saline containing 0.05% Tween 20 and the assay was developed with tetramethylbenzidine/H2O2 in citric acid buffer. After stopping the reaction with one volume 1 NH2SO4 the reaction was measured in an ELISA reader at 450 nm wavelength. The concentrations of Aβ in the culture supernatants were calculated from a standard curve obtained with known amounts of pure Aβ peptide.

In test [2] the target is T2, BACE2 (Rattus norvegicus, UniProt Q6IE75).
T2 construct: endogenous cellular BACE2 in the Ins1e rat cell line; endogenous in cells; host or cells: INS-TMEM27 (INS1e-derived rat cell line with TetOn-inducible full-length hTMEM27)
T2 sequence (Q6IE75 63-514): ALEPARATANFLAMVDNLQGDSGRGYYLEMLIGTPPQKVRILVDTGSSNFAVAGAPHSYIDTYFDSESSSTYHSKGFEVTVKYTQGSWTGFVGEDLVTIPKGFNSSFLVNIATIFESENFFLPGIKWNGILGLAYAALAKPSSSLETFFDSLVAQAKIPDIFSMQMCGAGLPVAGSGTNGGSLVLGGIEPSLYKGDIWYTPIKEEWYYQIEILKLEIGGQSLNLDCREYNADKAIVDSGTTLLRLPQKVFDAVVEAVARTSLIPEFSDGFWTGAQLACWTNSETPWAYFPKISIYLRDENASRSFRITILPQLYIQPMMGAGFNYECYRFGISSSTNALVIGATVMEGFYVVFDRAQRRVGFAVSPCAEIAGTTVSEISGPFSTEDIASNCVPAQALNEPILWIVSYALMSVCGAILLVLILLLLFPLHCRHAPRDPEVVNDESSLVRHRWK
The experiment in a line: BACE inhibition by measuring cellular TMEM27 cleavage (INS-TMEM27 cells, ELISA). Particulars: INS-TMEM27 (Ins1e rat) cells, shed human TMEM27 by ELISA; read-out: BACE2 cell act. IC50. The class given is cell-based. The source says:
Assay for BACE Inhibition by Measuring Cellular TMEM27 Cleavage:
The assay uses the principle of inhibition of human TMEM27 cleavage by endogenous cellular BACE2 in the Ins1e rat cell line and shedding from the cell surface into the culture medium, followed by detection in an ELISA assay Inhibition of BACE2 prevents the cleavage and shedding in a dose-dependent manner.
The stable cell line “INS-TMEM27” represents an INS1e-derived cell line with inducible expression (using the TetOn system) of full-length hTMEM27 in a doxycycline-dependent manner. The cells are cultured throughout the experiment in RPMI1640+Glutamax (Invitrogen) Penicillin/Streptomycin, 10% Fetal bovine serum, […], […], 100 micrograms/ml G418 and 100 microgram/ml hygromycin and are grown inadherent culture at 37° C. in a standard CO2 cell culture incubator.
INS-TMEM27 cells are seeded in 96-well plates. After 2 days in culture, BACE2 inhibitor is added in a range of concentrations as required by the assay and after a further two hours, doxycycline is added to a final concentration of 500 ng/ml. The cells are incubated for a further 46 hours and the supernatant harvested for detection of shed TMEM27.
An ELISA assay (using a pair of mouse anti-human-TMEM27 antibodies, raised against the extracellular domain of TMEM27) is used for detection of TMEM27 in the culture medium. An EC50 for BACE2 inhibition is calculated using the ELISA readout for each inhibitor concentration with standard curve-fitting software such as XLFit for the Excel spreadsheet program.
Background: An ELISA detects its analyte on a solid surface through an enzyme-linked reagent.

T1 sequence (P56817 46-501): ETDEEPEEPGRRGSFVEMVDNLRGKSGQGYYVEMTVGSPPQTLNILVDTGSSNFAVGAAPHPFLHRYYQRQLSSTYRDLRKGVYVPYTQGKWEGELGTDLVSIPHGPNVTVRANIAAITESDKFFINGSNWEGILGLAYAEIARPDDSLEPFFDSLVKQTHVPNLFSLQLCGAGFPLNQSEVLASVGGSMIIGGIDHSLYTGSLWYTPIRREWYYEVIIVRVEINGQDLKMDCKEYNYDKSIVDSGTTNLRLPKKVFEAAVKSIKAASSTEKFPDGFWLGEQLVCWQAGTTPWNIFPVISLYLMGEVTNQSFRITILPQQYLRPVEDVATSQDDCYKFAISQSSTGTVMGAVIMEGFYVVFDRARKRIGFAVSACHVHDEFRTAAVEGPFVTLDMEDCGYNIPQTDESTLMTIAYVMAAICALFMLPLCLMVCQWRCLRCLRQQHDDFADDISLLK

For orientation: IC50 means the concentration needed to halve the response being measured. As to `COc1ccccc1Nc1ccc(F)c([C@@]2(C)N=C(N)OC(C)(C)C2(F)F)c1` [Example 44, (R)-5,5-Difluoro-4-[2-fluoro-5-(2-methoxy-phenylamino)-phenyl]-4,6,6-trimethyl-5,6-dihydro-4H-[1,3]oxazin-2-ylamine], the figures for the IC50 in test [1] and in test [2] were 2090 nM and 2980 nM, respectively.
Turning to `C[C@]1(c2cc(NCc3cccs3)ccc2F)N=C(N)OC[C@@H]1F` [Example 5, (4R,5R)-5-Fluoro-4-{2-fluoro-5-[(thiophen-2-ylmethyl)-amino]-phenyl}-4-methyl-5,6-dihydro-4H-[1,3]oxazin-2-ylamine], the IC50 in test [1] was determined as 540 nM; in test [2], 1130 nM.
The corresponding values for `Cn1cc(Cl)c(CNc2ccc(F)c([C@@]3(C)N=C(N)OC[C@]3(C)F)c2)n1` [Example 13, (4R,5R)-4-{5-[(4-Chloro-1-methyl-1H-pyrazol-3-ylmethyl)-amino]-2-fluoro-phenyl}-5-fluoro-4,5-dimethyl-5,6-dihydro-4H-[1,3]oxazin-2-ylamine] are 48 nM and 79 nM.
The corresponding values for `CC1(C)OC(N)=N[C@](C)(c2cc(NC3CCCC3)ccc2F)C1(F)F` [Example 48, (R)-4-(5-Cyclopentylamino-2-fluoro-phenyl)-5,5-difluoro-4,6,6-trimethyl-5,6-dihydro-4H-[1,3]oxazin-2-ylamine] are 290 nM and 1420 nM.
For `C[C@]1(c2cc(NCc3nn(C(F)F)cc3Cl)ccc2F)N=C(N)OCC1(F)F` [Example 16, (R)-4-{5-[(4-Chloro-1-difluoromethyl-1H-pyrazol-3-ylmethyl)-amino]-2-fluoro-phenyl}-5,5-difluoro-4-methyl-5,6-dihydro-4H-[1,3]oxazin-2-ylamine] the same measures were 113 nM and 2520 nM.
With `CC1(C)OC(N)=N[C@](C)(c2cc(Nc3ccccc3C#N)ccc2F)C1(F)F` [Example 43, 2-[3-((R)-2-Amino-5,5-difluoro-4,6,6-trimethyl-5,6-dihydro-4H-[1,3]oxazin-4-yl)-4-fluoro-phenylamino]-benzonitrile], the values for the IC50 in test [1] and in test [2] were 1650 nM and 4140 nM, respectively.
Take `Cc1ccc(Cc2cc3cc(F)c([C@@]4(C)N=C(N)OCC4(F)F)cc3[nH]2)cc1` [Example 40, (R)-5,5-Difluoro-4-[5-fluoro-2-(4-methyl-benzyl)-3H-indol-6-yl]-4-methyl-5,6-dihydro-4H-[1,3]oxazin-2-ylamine]: the IC50 in test [1] came to 6020 nM; in test [2], 10900 nM.
For `C[C@@]1(c2cc(NCc3nn(C(F)F)cc3Cl)ccc2F)CCOC(N)=N1` [Example 1, (S)-4-{5-[(4-Chloro-1-difluoromethyl-1H-pyrazol-3-ylmethyl)-amino]-2-fluoro-phenyl}-4-methyl-5,6-dihydro-4H-[1,3]oxazin-2-ylamine] the same measures were 13 nM and 180 nM.
The corresponding values for `C[C@]1(F)COC(N)=N[C@]1(C)c1cc(NCc2nn(C(F)F)cc2Cl)ccc1F` [Example 12, (4R,5R)-4-{5-[(4-Chloro-1-difluoromethyl-1H-pyrazol-3-ylmethyl)-amino]-2-fluoro-phenyl}-5-fluoro-4,5-dimethyl-5,6-dihydro-4H-[1,3]oxazin-2-ylamine] are 39 nM and 588 nM.
On to `C[C@]1(c2cc(NCC3CC3)ccc2F)N=C(N)OCC1(F)F` [Example 25, (R)-4-[5-(Cyclopropylmethyl-amino)-2-fluoro-phenyl]-5,5-difluoro-4-methyl-5,6-dihydro-4H-[1,3]oxazin-2-ylamine], for which the IC50 was 310 nM in test [1] and 1650 nM in test [2].
With `CC1(C)OC(N)=N[C@](C)(c2cc(-c3cc(Cl)cc(Cl)c3)ccc2F)C1(F)F` [Example 51, (R)-4-(3′,5′-Dichloro-4-fluoro-biphenyl-3-yl)-5,5-difluoro-4,6,6-trimethyl-5,6-dihydro-4H-[1,3]oxazin-2-ylamine], the IC50 in test [1] worked out at 14500 nM; in test [2] it was 3350 nM.
With `COc1ccccc1Nc1ccc(F)c([C@@]2(C)N=C(N)OC[C@@H]2F)c1` [Example 3, (4R,5R)-5-Fluoro-4-[2-fluoro-5-(2-methoxy-phenylamino)-phenyl]-4-methyl-5,6-dihydro-4H-[1,3]oxazin-2-ylamine], the IC50 in test [1] is 310 nM; in test [2] it was 970 nM.
For the molecule `Cc1nc(C(C)Nc2ccc(F)c([C@@]3(C)N=C(N)OC[C@]3(C)F)c2)c(C(F)(F)F)o1` (mixture of isomers) [Example 14, (4R,5R)-5-Fluoro-4-{2-fluoro-5-[(RS)-1-(2-methyl-5-trifluoromethyl-oxazol-4-yl)-ethylamino]-phenyl}-4,5-dimethyl-5,6-dihydro-4H-[1,3]oxazin-2-ylamine], in test [2], the IC50 stood at 68 nM.
As for `C[C@]1(c2cc(NC3CCc4cc(C#N)cnc43)ccc2F)N=C(N)OCC1(F)F` (mixture of isomers) [Example 22, (RS)-7-[3-((R)-2-Amino-5,5-difluoro-4-methyl-5,6-dihydro-4H-[1,3]oxazin-4-yl)-4-fluoro-phenylamino]-6,7-dihydro-5H-[1]pyrindine-3-carbonitrile], the values for the IC50 in test [1] and in test [2] were 11 nM and 753 nM, respectively.
With `C[C@]1(c2cc(NCc3ccccc3F)ccc2F)N=C(N)OC[C@@H]1F` [Example 7, (4R,5R)-5-Fluoro-4-[2-fluoro-5-(2-fluoro-benzylamino)-phenyl]-4-methyl-5,6-dihydro-4H-[1,3]oxazin-2-ylamine], the IC50 was 780 nM in test [1] and 240 nM in test [2].
For the molecule `C[C@]1(c2cc(NCC3CC3)ccc2F)N=C(N)OC[C@@H]1F` [Example 8, (4R,5R)-4-[5-(Cyclopropylmethyl-amino)-2-fluoro-phenyl]-5-fluoro-4-methyl-5,6-dihydro-4H-[1,3]oxazin-2-ylamine], the IC50 in test [1] is 22 nM; in test [2] it was 164 nM.
Consider `C[C@]1(c2cc(NC3CCc4cc(Cl)cnc43)ccc2F)N=C(N)OCC1(F)F` (mixture of isomers) [Example 23, [3-((R)-2-Amino-5,5-difluoro-4-methyl-5,6-dihydro-4H-[1,3]oxazin-4-yl)-4-fluoro-phenyl]-((RS)-3-chloro-6,7-dihydro-5H-[1]pyrindin-7-yl)-amine], for which the IC50 in test [1] is 73 nM; in test [2], 1700 nM.
As to `C[C@]1(c2cc(Nc3ccccc3OC(F)F)ccc2F)N=C(N)OC[C@@H]1F` [Example 4, (4R,5R)-4-[5-(2-Difluoromethoxy-phenylamino)-2-fluoro-phenyl]-5-fluoro-4-methyl-5,6-dihydro-4H-[1,3]oxazin-2-ylamine], the IC50 came out at 370 nM in test [1] and 1810 nM in test [2].
